The values that follow come from patent publication US10627402B2, “Peptides for targeting gastric cancer, and medical use tehreof” (priority 2014, dated 2020).

In test [1] the test system is patient's gastric cancer tissue. Briefly: Ex vivo imaging of extracted cancer tissue (IVIS spectrum, ROI values). The test is classed as in vivo, mouse. Also noted: unit not given here. As for the experimental part:
(§1) Considering overcoming limitations that existing animal models transplanted with cultured cancer cells had, an ideal animal model of cancer similar to actual patient's cancer microenvironments is prepared. Then, to establish an animal model that can confirm influence of an irradiation-dependent cancer tissue, first, a mouse model transplanted with a cancer tissue that was extracted from an actual patient having gastric cancer was established. Regarding the establishment of such an animal model, the cancer tissue extracted from a patient was cultured in an NOD/SCID mouse. Once the cancer tissue was found in the NOD/SCID mouse, subculturing was carried out by using a Balb/c nude mouse, beginning from the next subculturing. In detail, after an NOD/SCID mouse was anesthetized via intraperitoneal injection of anesthetics, the cancer tissue was cut into pieces each having a size of 3×3 mm. Next, each of both flanks of the NOD/SCID mouse was transplanted with a piece of the cut cancer tissues, treated with a mixed solution of 100 μl of 100 IU/ml penicillin, 100 μg/ml streptomycin, 100 μg/ml gentamicin, and 2.5 μg/ml amphotericin B antibiotics, and then, sutured. The NOD/SCID mouse was recovered on a heating pad (for about 2 hours). Afterwards, the formation and growth of tumors were observed every week. When the cancer tissues grew to a size of 400-500 mm^3, the cancer tissues were separated and cut into pieces each having a size of 3×3 mm for subculturing. Next, for next subculturing, a nude mouse was anesthetized via intraperitoneal injection of anesthetics, and a piece of the cut cancer tissues was transplanted subcutaneously on the right thigh of the nude mouse. A transplantation site was changed from the flank to the both thighs so that irradiation can be locally done without affecting other organs during irradiation. That is, a mouse model in which a cancer tissue that underwent subculturing and was re-transplanted up to four times was formed was established. […] After having recovery time for no longer than 24 hours, in vivo peptide screening was performed. Here, as a control group in an irradiated population, a mouse model that was not irradiated among the same mouse models was used to screen a peptide.
(§2) In particular, 1 μg/μl of N-hydroxysuccinimide esters of Cy5.5 (Amersham) was added to 1 mL of bicarbonate buffer (pH 8.3) having the phage concentration of 10^11 plaque forming units (pfu), and then, in a condition where a dark environment was maintained, […] a phage-surface protein was linked to the Cy5.5 fluorescent probe at room temperature for 3 hours. That is, loop peptide-expressing phages to which the Cy5.5 fluorescent probe was linked were each obtained by precipitation with 170 μl of 20% (w/v) PEG 8000/2.5 M NaCl solution and purification. To determine a proportion of the Cy5.5 fluorescent probe linked to each of the finally obtained phage samples, an IVIS spectrum imaging system (Xenogen) was used for measurement, and region of interest (ROI) values were determined using the software program of a corresponding device. Accordingly, it was confirmed that the Cy5.5 fluorescent probe was linked to each of the phage samples at almost the same linking proportion.
(§3) After each of the prepared phages expressing the loop peptide was injected into the ratio-sensitive xenograft mouse model of Example 1 and the control group through the vein tail of the mouse, images were measured for 2 days immediately after the injection, thereby confirming images showing in vivo circulation of the peptide and the targeting of the peptide only in the cancer tissue while the targeting to other organs and tissues gradually disappeared. […] In addition, to verify which part of the cancer tissue was targeted by each of the loop peptide-expressing phages via ex vivo imaging, only the cancer tissue was separated and extracted, and the whole cancer tissue itself and the respective cancer tissue were subjected to fragmentation into several pieces. […]

Test [2] has the same test system. Briefly: In vivo imaging of Cy5.5-labeled peptide-expressing phages (IVIS spectrum, ROI values). Also noted: species or system mouse; unit not given here. The settings on record: Cy5.5-labeled phage, tail vein injection, 2nd day. As for the experimental part:
as §1, §2, §3

The test system is the same in test [3]. Description: Titering of phages eluted from extracted cancer tissue, relative to tissue weight. The test is classed as in vivo, mouse. As for the experimental part: as §1
After each of the prepared phages expressing the loop peptide was injected into the ratio-sensitive xenograft mouse model of Example 1 and the control group through the vein tail of the mouse, images were measured for 2 days immediately after the injection, thereby confirming images showing in vivo circulation of the peptide and the targeting of the peptide only in the cancer tissue while the targeting to other organs and tissues gradually disappeared. […] In addition, to verify which part of the cancer tissue was targeted by each of the loop peptide-expressing phages via ex vivo imaging, only the cancer tissue was separated and extracted, and the whole cancer tissue itself and the respective cancer tissue were subjected to fragmentation into several pieces.
To compare targeting efficiency more accurately based on the results of FIGS. 5 and 6, the pieces of the extracted cancer tissue the pieces of the extracted cancer tissue were collected independently, and phages bound to the cancer tissues were eluted. The concentration of each of the eluted phages was measured according to titering, and due to different size and weight of the extracted cancer tissue, the weight of each cancer tissue was also measured in terms of establishing numerical standardization. In this regard, the amount of the identified phages was calculated relative to the weight of the cancer tissue. In addition, to more accurately quantify each imaging result, the in vivo imaging and the ex vivo imaging were confirmed by measuring ROI values that were determined using the IVIS spectrum (Xenogen) program, and the results thereof are shown in Table 2.

[4] abbreviates: Non-irradiated population as control.

Take Cy5.5 [reference compound]: the “ex vivo ROI” value in test [1] (Irradiated population (10 Gy)) and in test [1] (setting [4]) was 1.00 throughout. For the same substance, the “in vivo ROI” value in test [2] (Irradiated population (10 Gy)) and in test [2] (setting [4]) was 1.00 throughout.

On to “DVWHSAY [Peptide W3, 7-amino-acid loop peptide from non-irradiated population; tested as Cy5.5-labeled M13 phage expressing it]”, for which the “ex vivo ROI” value in test [1] (setting [4]) was 3.54. In addition, the “in vivo ROI” value in test [2] (setting [4]) was found to be 1.90. The pfu/mg in test [3] (setting [4]) was determined as 8.1 pfu/mg.

Turning to “NRGDRIL [Peptide P3, 7-amino-acid loop peptide from irradiated population; tested as Cy5.5-labeled M13 phage expressing it]”, in test [1] (Irradiated population (10 Gy)), the “ex vivo ROI” value worked out at 77.85. For the same substance, the “in vivo ROI” value in test [2] (Irradiated population (10 Gy)) stood at 19.83. Besides, the pfu/mg in test [3] (Irradiated population (10 Gy)) was determined as 18.6 pfu/mg.

For the substance “NWGDRIL [Peptide W1, 7-amino-acid loop peptide from non-irradiated population; tested as Cy5.5-labeled M13 phage expressing it]”, the “ex vivo ROI” value in test [1] (setting [4]) is given as 2.08. For the same substance, in test [2] (setting [4]), the “in vivo ROI” value was 1.86. The substance further came in with a pfu/mg in test [3] (setting [4]) of 11.8 pfu/mg.

Turning to “QRSLPSL [Peptide W2, 7-amino-acid loop peptide from non-irradiated population; tested as Cy5.5-labeled M13 phage expressing it]”, the “ex vivo ROI” value in test [1] (setting [4]) worked out at 2.68. The “in vivo ROI” value in test [2] (setting [4]) came to 2.19. Further, in test [3] (setting [4]), the pfu/mg stood at 18.2 pfu/mg.

For the substance “RYVGTLF [Peptide P2, 7-amino-acid loop peptide from irradiated population; tested as Cy5.5-labeled M13 phage expressing it]”, the “ex vivo ROI” value in test [1] (Irradiated population (10 Gy)) is 38.83. Moreover, the “in vivo ROI” value in test [2] (Irradiated population (10 Gy)) is given as 9.05. The pfu/mg in test [3] (Irradiated population (10 Gy)) is listed as 6.3 pfu/mg.

In the case of “TVRTSAD [Peptide P1, 7-amino-acid loop peptide from irradiated population; tested as Cy5.5-labeled M13 phage expressing it]”, in test [1] (Irradiated population (10 Gy)), the “ex vivo ROI” value stood at 70.66. Moreover, in test [2] (Irradiated population (10 Gy)), the “in vivo ROI” value is 16.44. In addition, the pfu/mg in test [3] (Irradiated population (10 Gy)) is recorded as 25.3 pfu/mg.
